Several values for one entry are separate records, joined by “and”; a condition that tells them apart may be missing. Equal entries are not always repeated. Records with an inconclusive call do not appear.

This test relates to MX-1 breast xenograft, nude mice, tumor weight T/C. The test can be described thus: NCI In Vivo Anticancer Drug Screen. Data for tumor model Human Mammary Carcinoma MX-1 Xenograft (intrarenal inoculation) in NU/NU Swiss (nude) mice. The following applies: endpoint: mean tumor weight change, higher = larger tumour. A digest of the protocol: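 Activity is given as a ratio, with each measurement in the compound-treated arm divided by the matching measurement in vehicle-dosed controls. Tumour size or survival serves as the measured parameter.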

Setting [1] is: dose: 100.0 mg/kg/injection, schedule: Q01DX010 (sc), vehicle: saline with Tween-80.
The mark [2] stands for this setting: dose: 100.0 mg/kg/injection, schedule: Q04DX003 (sc), vehicle: saline.
The mark [3] stands for this setting: dose: 200.0 mg/kg/injection, schedule: Q04DX003 (sc), vehicle: saline with Tween-80.
[4] abbreviates: dose: 200.0 mg/kg/injection, schedule: Q04DX003 (sc), vehicle: saline.
Where [5] appears, read: dose: 300.0 mg/kg/injection, schedule: Q04DX003 (sc), vehicle: saline with Tween-80.
Where [6] appears, read: dose: 400.0 mg/kg/injection, schedule: Q04DX003 (sc), vehicle: saline with Tween-80.
Where [7] appears, read: dose: 50.0 mg/kg/injection, schedule: Q04DX003 (sc), vehicle: saline.
[8] abbreviates: dose: 200.0 mg/kg/injection, schedule: Q04DX003 (sc), vehicle: water.
The mark [9] stands for this setting: dose: 12.5 mg/kg/injection, schedule: Q04DX003 (sc), vehicle: saline.
[10] abbreviates: dose: 25.0 mg/kg/injection, schedule: Q04DX003 (sc), vehicle: saline.
[11] abbreviates: dose: 300.0 mg/kg/injection, schedule: Q04DX003 (sc), vehicle: saline.
[12] abbreviates: dose: 600.0 mg/kg/injection, schedule: Q04DX003 (sc), vehicle: saline.
Where [13] appears, read: dose: 1200.0 mg/kg/injection, schedule: Q04DX003 (sc), vehicle: saline.

Turning to `CC1=C(/C=C/C(C)=C/C=C/C(C)=C/C(=O)O)C(C)(C)CCC1`, the T/C by setting is: (dose: 25.0 mg/kg/injection, schedule: Q01DX010 (sc), vehicle: saline with Tween-80) 86 % of control; (dose: 50.0 mg/kg/injection, schedule: Q01DX010 (sc), vehicle: saline with Tween-80) 58 % of control; under setting [1], 52 % of control.
In the case of `Cc1c2ccccc2cc2cccc[n+]12`, the T/C by setting is: (dose: 7.5 mg/kg/injection, schedule: Q04DX003 (sc), vehicle: saline) 74 % of control; (dose: 15.0 mg/kg/injection, schedule: Q04DX003 (sc), vehicle: saline) 88 % of control; (dose: 30.0 mg/kg/injection, schedule: Q04DX003 (sc), vehicle: saline) 67 % of control.
Regarding `CCC(C(=O)O)C(=O)O.[NH-]CC1CCCC[N-]1.[Pt+2]`, the T/C by setting is: under setting [2], 51 % of control; under setting [3], -98 % of control; under setting [4], 20 % of control; under setting [5], -98 % of control; (dose: 300.0 mg/kg/injection, schedule: Q04DX003 (sc), vehicle: suspension in saline) 14 % of control and 26 % of control; under setting [6], -100 % of control. Also, the T/C is 2 % of control (dose: 400.0 mg/kg/injection, schedule: Q04DX003 (sc), vehicle: saline); 28 % of control and 32 % of control (dose: 400.0 mg/kg/injection, schedule: Q04DX003 (sc), vehicle: suspension in saline); -100 % of control (dose: 500.0 mg/kg/injection, schedule: Q04DX003 (sc), vehicle: saline with Tween-80); 3 % of control and 20 % of control (dose: 500.0 mg/kg/injection, schedule: Q04DX003 (sc), vehicle: suspension in saline).
In the case of `CCCCCCC(=O)CC(SCC)c1ccccc1Cl` (centres undefined), the T/C runs as follows: under setting [5], 75 % of control; (dose: 600.0 mg/kg/injection, schedule: Q04DX003 (sc), vehicle: saline with Tween-80) 88 % of control; (dose: 1200.0 mg/kg/injection, schedule: Q04DX003 (sc), vehicle: saline with Tween-80) 72 % of control; (dose: 2400.0 mg/kg/injection, schedule: Q04DX003 (sc), vehicle: saline with Tween-80) 96 % of control.
For `CCOc1ccc(-c2nc3ccc(-c4nc5ccc(N6CCN(C)CC6)cc5[nH]4)cc3[nH]2)cc1`, the T/C (dose: 25.0 mg/kg/injection, schedule: Q04DX003 (ip), vehicle: saline) is 96 % of control.
For `NC(=O)CC(N)C(=O)O` (centres undefined), the T/C (dose: 1600.0 mg/kg/injection, schedule: Q04DX003 (sc), vehicle: saline) is 88 % of control; the T/C (dose: 3200.0 mg/kg/injection, schedule: Q04DX003 (sc), vehicle: saline) was 68 % of control; the T/C (dose: 6400.0 mg/kg/injection, schedule: Q04DX003 (sc), vehicle: saline) is 90 % of control.
Turning to `COc1cccc2c1C(=O)c1c(O)c3c(c(O)c1C2=O)C[C@@](O)(/C(C)=N/NC(=O)c1ccccc1)C[C@@H]3OC1CC(N)C(O)C(C)O1` (some centres undefined), the T/C (dose: 18.75 mg/kg/injection, schedule: Q04DX003 (sc), vehicle: water) was 73 % of control and the T/C (dose: 37.5 mg/kg/injection, schedule: Q04DX003 (sc), vehicle: water) is 25 % of control.
As for `Cc1ccc(NCC2(/N=C/c3ccccc3)OC(CO)C(O)C2O)cc1` (centres undefined), the T/C by setting is: (dose: 200.0 mg/kg/injection, schedule: Q04DX003 (sc), vehicle: Klucel (hydroxypropylcellulose) (HPC)) 109 % of control; (dose: 400.0 mg/kg/injection, schedule: Q04DX003 (sc), vehicle: Klucel (hydroxypropylcellulose) (HPC)) 124 % of control; (dose: 800.0 mg/kg/injection, schedule: Q04DX003 (sc), vehicle: Klucel (hydroxypropylcellulose) (HPC)) 94 % of control; (dose: 1600.0 mg/kg/injection, schedule: Q04DX003 (sc), vehicle: Klucel (hydroxypropylcellulose) (HPC)) 101 % of control.
Turning to `C[C@@H](CN1CC(=O)NC(=O)C1)N1CC(=O)NC(=O)C1`, the T/C under setting [1] was 63 % of control; the T/C (dose: 200.0 mg/kg/injection, schedule: Q01DX010 (sc), vehicle: saline with Tween-80) was 81 % of control; the T/C (dose: 400.0 mg/kg/injection, schedule: Q01DX010 (sc), vehicle: saline with Tween-80) was 39 % of control.
`CC(=S)NC(O)C(=O)c1ccccc1` (centres undefined): the T/C by setting is: under setting [3], 163 % of control; under setting [6], 122 % of control; (dose: 800.0 mg/kg/injection, schedule: Q04DX003 (sc), vehicle: saline with Tween-80) 152 % of control; (dose: 1600.0 mg/kg/injection, schedule: Q04DX003 (sc), vehicle: saline with Tween-80) 123 % of control.
Turning to `C[Si](C)(C)O/C=C1/CCOC1=O`, the T/C by setting is: (dose: 1200.0 mg/kg/injection, schedule: Q04DX003 (sc), vehicle: suspension in saline) 105 % of control; (dose: 2400.0 mg/kg/injection, schedule: Q04DX003 (sc), vehicle: suspension in saline) 157 % of control.
On to `CNC(=O)ON(C(C)=O)C(=O)NC`, for which the T/C is 69 % of control under setting [7]; 108 % of control (dose: 100.0 mg/kg/injection, schedule: Q01DX010 (sc), vehicle: water); 67 % of control (dose: 150.0 mg/kg/injection, schedule: Q01DX010 (sc), vehicle: water); 85 % of control (dose: 200.0 mg/kg/injection, schedule: Q01DX010 (sc), vehicle: water); 16 % of control under setting [4].
Take `COC(=O)C[C@](O)(CCCC(C)(C)O)C(=O)O[C@@H]1C(OC)=C[C@]23CCCN2CCc2cc4c(cc2[C@H]13)OCO4`: the T/C runs as follows: (dose: 0.5 mg/kg/injection, schedule: Q01DX010 (sc), vehicle: saline) 177 % of control; (dose: 1.0 mg/kg/injection, schedule: Q01DX010 (sc), vehicle: saline) 110 % of control.
As to `CNC(=O)c1cccc2c(Nc3ccc(NS(C)(=O)=O)cc3OC)c3cccc(C)c3nc12`, the T/C by setting is: (dose: 50.0 mg/kg/injection, schedule: Q04DX003 (sc), vehicle: water) 111 % of control; (dose: 100.0 mg/kg/injection, schedule: Q04DX003 (sc), vehicle: water) 73 % of control; under setting [8], 31 % of control.
For the molecule `CNc1nc2c(N)ncnc2n1C1OC(CO)C(O)C1O` (centres undefined), the T/C is, setting by setting: under setting [9], 111 % of control; under setting [10], 92 % of control; under setting [7], 60 % of control.
As for `Nc1cc(Cl)c2[nH]cnc2n1`, the T/C by setting is: under setting [8], 47 % of control; (dose: 400.0 mg/kg/injection, schedule: Q04DX003 (sc), vehicle: water) 42 % of control; (dose: 800.0 mg/kg/injection, schedule: Q04DX003 (sc), vehicle: water) 55 % of control.
In the case of `CCC(CC)COC(=O)c1ccccc1C(=O)OCC(CC)CC`, the T/C is 112 % of control under setting [11]; 82 % of control under setting [12]; 110 % of control under setting [13]; 88 % of control (dose: 2400.0 mg/kg/injection, schedule: Q04DX003 (sc), vehicle: saline).
Turning to `O=C(O)C1CC(O)CN1` (centres undefined), the T/C is, setting by setting: (dose: 150.0 mg/kg/injection, schedule: Q04DX003 (sc), vehicle: saline) 67 % of control; under setting [11], 120 % of control; under setting [12], 91 % of control; under setting [13], 106 % of control.
Regarding `COc1c(CNC(=O)CCl)cc2[nH]c(C)cc2c1CNC(=O)CCl`, the T/C reads like this: (dose: 250.0 mg/kg/injection, schedule: Q04DX003 (sc), vehicle: Klucel (hydroxypropylcellulose) (HPC)) 100 % of control; (dose: 1000.0 mg/kg/injection, schedule: Q04DX003 (sc), vehicle: Klucel (hydroxypropylcellulose) (HPC)) 55 % of control; (dose: 2000.0 mg/kg/injection, schedule: Q04DX003 (sc), vehicle: Klucel (hydroxypropylcellulose) (HPC)) 58 % of control.
For `CC1CCC(NC(=O)N(CCCl)N=O)CC1` (centres undefined), the T/C runs as follows: (dose: 6.25 mg/kg/injection, schedule: Q01DX010 (sc), vehicle: Klucel (hydroxypropylcellulose) (HPC)) 74 % of control; (dose: 12.5 mg/kg/injection, schedule: Q01DX010 (sc), vehicle: Klucel (hydroxypropylcellulose) (HPC)) 78 % of control.
Regarding `C[CH2][Ge]1([CH2]C)[CH2]CC2(CCN(CCCN(C)C)C2)C[CH2]1`, the T/C is 72 % of control under setting [9], 92 % of control under setting [10], 72 % of control under setting [7] and 85 % of control under setting [2].
For the molecule `C=C1N(C)c2ccccc2C1(C)C`, the T/C runs as follows: (dose: 25.0 mg/kg/injection, schedule: Q04DX003 (sc), vehicle: saline with Tween-80) 100 % of control; (dose: 50.0 mg/kg/injection, schedule: Q04DX003 (sc), vehicle: saline with Tween-80) 75 % of control.

These data come from PubChem BioAssay AID296 (DTP/NCI, 2004).
